Literature values as cited in patent US20120074308A1, “IMMUNOSUPPRESSANT MONITORING BY MALDI MASS SPECTROMETRY” (priority 2010, published 2012).

Settings: for therapeutic window: immunosuppressants currently used for transplant patients, level in blood; for narrow therapeutic range: levels in whole blood

narrow therapeutic range [ng/mL] | Compound | therapeutic window [ng/mL] | increased levels associated with high toxicity (thrombocytopenia, hyperlipidemia, high serum creatinine levels) (blood level)
3 to 8 | CO[C@H]1C[C@@H]2CC[C@@H](C)[C@@](O)(O2)C(=O)C(=O)N2CCCC[C@H]2C(=O)O[C@H]([C@H](C)C[C@@H]2CC[C@@H](OCCO)[C@H](OC)C2)CC(=O)[C@H](C)/C=C(\C)[C@@H](O)[C@@H](OC)C(=O)[C@H](C)C[C@H](C)/C=C/C=C/C=C/1C [Everolimus] | 3 to 8 | 
4 to 20 | C=CC[C@@H]1/C=C(\C)C[C@H](C)C[C@H](OC)[C@H]2O[C@@](O)(C(=O)C(=O)N3CCCC[C@H]3C(=O)O[C@H](/C(C)=C/[C@@H]3CC[C@@H](O)[C@H](OC)C3)[C@H](C)[C@@H](O)CC1=O)[C@H](C)C[C@@H]2OC [Tacrolimus] | 4 to 20 | 
4 to 12 | CO[C@H]1C[C@@H]2CC[C@@H](C)[C@@](O)(O2)C(=O)C(=O)N2CCCC[C@H]2C(=O)O[C@H]([C@H](C)C[C@@H]2CC[C@@H](O)[C@H](OC)C2)CC(=O)[C@H](C)/C=C(\C)[C@@H](O)[C@@H](OC)C(=O)[C@H](C)C[C@H](C)/C=C/C=C/C=C/1C [Sirolimus] | 4 to 12 | above 15 nanogram per milliliter
